Test results taken from US11389469B2, “Targeting NAD+ to treat chemotherapy and radiotherapy induced cognitive impairment, neuropathies and inactivity” (NewSouth Innovations Pty Ltd, priority 2015, dated 2022).

How the values were obtained:
elderly mice = conditions: reference [17]; cited from earlier work
Male Sprague-Dawley rats [1] = assay: Voluntary wheel running after doxorubicin; format: in vivo, rat
Description: (§1) FIGS. 1A-1D. […] A) Voluntary wheel running, followed by B) the von Frey test for mechanical allodynia (pain) at day 3. At day 8, C) short term spatial memory was assessed using the novel location recognition test. At day 9, D) short term object memory was assessed using the novel object recognition test. n=8, *p<0.05, **p<0.01, ****p<0.0001. Dunn's multiple comparison test, Kruskal Wallis one-way ANOVA.
(§2) In this Example, the strategy is to raise NAD^+ levels during chemotherapy treatment by administering animals with a cell permeable NAD^+ precursor known as nicotinamide mononucleotide (NMN). […] As expected, a single dose of doxorubicin caused neurocognitive defects including reduced voluntary wheel running, increased pain, and reduced short term spatial memory (FIG. 1).

Male Sprague-Dawley rats [2] = assay: von Frey test for mechanical allodynia (pain) after doxorubicin; format: in vivo, rat
Description: as §1, §2

Male Sprague-Dawley rats [3] = assay: Novel location recognition test (short term spatial memory) after doxorubicin; format: in vivo, rat
Description: as §1, §2

muscle mitochondria = assay: Mitochondrial respiration in Clarke type electrode; conditions: aged NMN treated mice, preliminary data FIG. 3C

| voluntary wheel running, effect of doxorubicin (Male Sprague-Dawley rats [1]; single i.p. dose of doxorubicin (4 mg/kg), male SD rats) | pain (mechanical allodynia, von Frey test), effect of doxorubicin (Male Sprague-Dawley rats [2]; single i.p. dose of doxorubicin (4 mg/kg), day 3, male SD rats) | short term spatial memory (novel location recognition test), effect of doxorubicin (Male Sprague-Dawley rats [3]; single i.p. dose of doxorubicin (4 mg/kg), day 8, male SD rats) | Molecule | metabolism and aspects of ageing (elderly mice) | mitochondrial dysfunction (respiratory capacity of muscle mitochondria) (muscle mitochondria) | effect of NMN on doxorubicin-reduced voluntary wheel running (Male Sprague-Dawley rats [1]; NMN in drinking water (500 mg/L) 24 hr prior and subsequent, plus 200 mg/kg co-administered with doxorubicin 4 mg/kg i.p.) | effect of NMN on doxorubicin-increased pain (mechanical allodynia, von Frey) (Male Sprague-Dawley rats [2]; NMN in drinking water (500 mg/L) plus 200 mg/kg co-administered with doxorubicin 4 mg/kg i.p., day 3) | effect of NMN on doxorubicin-reduced short term spatial memory (novel location recognition) (Male Sprague-Dawley rats [3]; NMN in drinking water (500 mg/L) plus 200 mg/kg co-administered with doxorubicin 4 mg/kg i.p., day 8) |
| --- | --- | --- | --- | --- | --- | --- | --- | --- |
| – | – | – | NC(=O)c1ccc[n+]([C@@H]2O[C@H](CO)[C@@H](O)[C@H]2O)c1 [NR, Nicotinamide Riboside] | improve metabolism and reverse aspects of ageing | – | – | – | – |
| reduced | increased | reduced | COc1cccc2c1C(=O)c1c(O)c3c(c(O)c1C2=O)C[C@@](O)(C(=O)CO)C[C@@H]3O[C@H]1C[C@H](N)[C@H](O)[C@H](C)O1 [doxorubicin, reference compound] | – | – | – | – | – |
| – | – | – | Nicotinamide Mononucleotide [NMN] | improve metabolism and reverse aspects of ageing | reverse | reduced the effects of doxorubicin | reduced the effects of doxorubicin | reduced the effects of doxorubicin |
